Data taken from the kinase profiling compilation of Christmann-Franck et al. (2016).

Columns and labels:
Assay in all cases: radiometric filter-binding kinase assay, Kinase HotSpot
Settings in all cases: compound 0.5 µM; ATP 10 µM
CHUK (human) = CHUK (human) (UniProt O15111)
CDC42BPA (human) = CDC42BPA (human) (UniProt Q5VT25)
[1] = biological target: JAK1 JH1 catalytic (human) (UniProt P23458)
CSNK1G2 (human) = CSNK1G2 (human) (UniProt P78368)
CDK6 CCND3 (human) = CDK6 CCND3 (human) (UniProt P30281+Q00534)
PRKCI (human) = PRKCI (human) (UniProt P41743)
PRKCI (human), sequence (P41743 whole entry, looked up): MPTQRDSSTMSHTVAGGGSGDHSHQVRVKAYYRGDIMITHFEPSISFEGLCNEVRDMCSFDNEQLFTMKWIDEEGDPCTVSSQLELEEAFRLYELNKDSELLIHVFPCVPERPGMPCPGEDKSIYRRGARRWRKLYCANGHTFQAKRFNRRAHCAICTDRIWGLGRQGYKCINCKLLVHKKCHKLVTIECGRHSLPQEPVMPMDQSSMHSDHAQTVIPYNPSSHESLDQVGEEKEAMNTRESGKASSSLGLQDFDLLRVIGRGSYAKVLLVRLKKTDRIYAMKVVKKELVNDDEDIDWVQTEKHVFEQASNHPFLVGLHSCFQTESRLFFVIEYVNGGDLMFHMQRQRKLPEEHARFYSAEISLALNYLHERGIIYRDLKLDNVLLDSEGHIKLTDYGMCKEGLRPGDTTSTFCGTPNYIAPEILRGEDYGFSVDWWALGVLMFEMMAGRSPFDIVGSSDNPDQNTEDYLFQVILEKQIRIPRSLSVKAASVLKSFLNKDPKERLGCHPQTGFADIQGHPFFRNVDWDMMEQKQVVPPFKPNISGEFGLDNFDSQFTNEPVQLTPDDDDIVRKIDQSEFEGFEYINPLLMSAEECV

STK3 (human) = STK3 (human) (UniProt Q13188)
RET (human) = RET (human) (UniProt P07949)
FGR (human) = FGR (human) (UniProt P09769)
EGFR (human) = EGFR (human) (UniProt P00533)
HIPK1 (human) = HIPK1 (human) (UniProt Q86Z02)
DYRK1B (human) = DYRK1B (human) (UniProt Q9Y463)
DYRK1B (human), sequence (Q9Y463 whole entry, looked up): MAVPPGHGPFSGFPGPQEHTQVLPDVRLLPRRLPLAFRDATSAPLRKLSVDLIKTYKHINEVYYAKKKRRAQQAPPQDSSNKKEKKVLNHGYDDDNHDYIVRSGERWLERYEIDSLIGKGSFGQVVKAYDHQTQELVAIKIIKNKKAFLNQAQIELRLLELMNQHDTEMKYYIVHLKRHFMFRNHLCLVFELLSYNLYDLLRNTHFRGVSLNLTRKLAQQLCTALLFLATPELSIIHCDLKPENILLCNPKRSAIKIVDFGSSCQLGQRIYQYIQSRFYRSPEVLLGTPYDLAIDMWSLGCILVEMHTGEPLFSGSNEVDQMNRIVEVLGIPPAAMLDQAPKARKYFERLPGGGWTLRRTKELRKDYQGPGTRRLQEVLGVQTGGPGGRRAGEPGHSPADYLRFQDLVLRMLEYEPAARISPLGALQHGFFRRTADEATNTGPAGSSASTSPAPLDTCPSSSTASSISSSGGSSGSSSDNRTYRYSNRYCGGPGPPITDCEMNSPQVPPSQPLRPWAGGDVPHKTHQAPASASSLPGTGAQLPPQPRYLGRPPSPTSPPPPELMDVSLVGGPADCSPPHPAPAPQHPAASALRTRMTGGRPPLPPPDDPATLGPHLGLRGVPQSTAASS

PNCK (human) = PNCK (human) (UniProt Q6P2M8)
MST4 (human) = MST4 (human) (UniProt Q9P289)
PDGFRA (human) = PDGFRA (human) (UniProt P16234)
PRKX (human) = PRKX (human) (UniProt P51817)
PRKX (human), sequence (P51817 whole entry, looked up): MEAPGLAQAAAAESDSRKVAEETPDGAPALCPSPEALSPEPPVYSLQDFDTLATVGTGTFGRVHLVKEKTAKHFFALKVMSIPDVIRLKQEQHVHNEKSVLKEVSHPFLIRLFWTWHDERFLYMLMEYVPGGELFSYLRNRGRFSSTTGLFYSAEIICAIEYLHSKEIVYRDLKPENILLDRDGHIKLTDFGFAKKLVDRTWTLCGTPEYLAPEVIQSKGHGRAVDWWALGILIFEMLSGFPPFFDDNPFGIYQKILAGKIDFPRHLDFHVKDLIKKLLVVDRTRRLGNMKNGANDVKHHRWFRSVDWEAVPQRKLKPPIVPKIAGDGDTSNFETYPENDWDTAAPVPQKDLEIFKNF

WNK2 (human) = WNK2 (human) (UniProt Q9Y3S1)
ABL1 (human) = ABL1 (human) (UniProt P00519)
PTK2B (human) = PTK2B (human) (UniProt Q14289)
PTK2B (human), sequence (Q14289 whole entry, looked up): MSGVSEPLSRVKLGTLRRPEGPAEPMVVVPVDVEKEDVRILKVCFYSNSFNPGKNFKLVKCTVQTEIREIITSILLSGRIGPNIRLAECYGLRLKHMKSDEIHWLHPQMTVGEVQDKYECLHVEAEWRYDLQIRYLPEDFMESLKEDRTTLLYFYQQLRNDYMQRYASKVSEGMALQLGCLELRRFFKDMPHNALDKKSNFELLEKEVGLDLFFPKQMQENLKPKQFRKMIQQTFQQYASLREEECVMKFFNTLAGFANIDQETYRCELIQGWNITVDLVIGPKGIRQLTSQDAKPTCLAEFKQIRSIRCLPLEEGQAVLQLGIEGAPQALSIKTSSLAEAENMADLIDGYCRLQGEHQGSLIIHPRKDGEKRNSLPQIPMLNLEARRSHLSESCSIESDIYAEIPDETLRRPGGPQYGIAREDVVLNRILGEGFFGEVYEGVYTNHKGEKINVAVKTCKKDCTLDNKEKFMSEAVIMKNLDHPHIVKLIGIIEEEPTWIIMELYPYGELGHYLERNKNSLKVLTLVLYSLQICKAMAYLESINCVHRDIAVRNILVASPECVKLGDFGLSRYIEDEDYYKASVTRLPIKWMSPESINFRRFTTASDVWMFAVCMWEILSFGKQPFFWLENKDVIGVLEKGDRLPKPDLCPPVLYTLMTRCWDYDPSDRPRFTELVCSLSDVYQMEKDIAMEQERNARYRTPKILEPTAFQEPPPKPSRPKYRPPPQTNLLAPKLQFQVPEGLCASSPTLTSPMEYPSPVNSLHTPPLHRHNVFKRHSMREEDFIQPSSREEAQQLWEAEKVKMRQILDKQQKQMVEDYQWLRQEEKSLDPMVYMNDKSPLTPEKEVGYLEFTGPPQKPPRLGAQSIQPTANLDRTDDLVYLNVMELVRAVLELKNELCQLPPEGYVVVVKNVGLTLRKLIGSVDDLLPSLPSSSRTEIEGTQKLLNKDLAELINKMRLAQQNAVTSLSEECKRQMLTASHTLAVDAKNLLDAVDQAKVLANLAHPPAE

GRK6 (human) = GRK6 (human) (UniProt P43250)
CDK9 CCNK (human) = CDK9 CCNK (human) (UniProt O75909+P50750)
PKN1 (human) = PKN1 (human) (UniProt Q16512)
DYRK2 (human) = DYRK2 (human) (UniProt Q92630)
EPHA1 (human) = EPHA1 (human) (UniProt P21709)
MARK1 (human) = MARK1 (human) (UniProt Q9P0L2)
ACVRL1 (human) = ACVRL1 (human) (UniProt P37023)
SRPK3 (human) = SRPK3 (human) (UniProt Q9UPE1)
SRMS (human) = SRMS (human) (UniProt Q9H3Y6)
SLK (human) = SLK (human) (UniProt Q9H2G2)
SYK (human) = SYK (human) (UniProt P43405)
MAP4K2 (human) = MAP4K2 (human) (UniProt Q12851)
MAP4K2 (human), sequence (Q12851 whole entry, looked up): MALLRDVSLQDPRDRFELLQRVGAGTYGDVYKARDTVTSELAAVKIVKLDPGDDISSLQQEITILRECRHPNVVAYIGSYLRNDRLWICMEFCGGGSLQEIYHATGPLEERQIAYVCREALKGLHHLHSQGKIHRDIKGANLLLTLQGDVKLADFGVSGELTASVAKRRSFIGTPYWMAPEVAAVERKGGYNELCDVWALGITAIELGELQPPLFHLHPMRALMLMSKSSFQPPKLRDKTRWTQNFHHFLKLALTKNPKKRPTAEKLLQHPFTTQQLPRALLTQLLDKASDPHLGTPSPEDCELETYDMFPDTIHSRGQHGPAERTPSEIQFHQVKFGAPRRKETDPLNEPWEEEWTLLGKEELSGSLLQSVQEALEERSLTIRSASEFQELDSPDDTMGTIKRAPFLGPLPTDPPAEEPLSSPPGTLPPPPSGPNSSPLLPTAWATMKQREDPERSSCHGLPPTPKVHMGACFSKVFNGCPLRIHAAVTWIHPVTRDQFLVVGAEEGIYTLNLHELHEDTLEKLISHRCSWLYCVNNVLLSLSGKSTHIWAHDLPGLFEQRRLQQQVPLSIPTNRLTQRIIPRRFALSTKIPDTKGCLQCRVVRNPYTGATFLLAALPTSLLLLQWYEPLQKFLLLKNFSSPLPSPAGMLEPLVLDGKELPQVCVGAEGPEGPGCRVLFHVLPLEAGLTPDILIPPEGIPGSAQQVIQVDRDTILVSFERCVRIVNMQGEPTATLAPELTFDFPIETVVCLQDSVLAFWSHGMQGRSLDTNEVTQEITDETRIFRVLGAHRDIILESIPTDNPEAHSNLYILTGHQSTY

CSK (human) = CSK (human) (UniProt P41240)
DCLK2 (human) = DCLK2 (human) (UniProt Q8N568)
AKT1 (human) = AKT1 (human) (UniProt P31749)
AKT1 (human), sequence (P31749 whole entry, looked up): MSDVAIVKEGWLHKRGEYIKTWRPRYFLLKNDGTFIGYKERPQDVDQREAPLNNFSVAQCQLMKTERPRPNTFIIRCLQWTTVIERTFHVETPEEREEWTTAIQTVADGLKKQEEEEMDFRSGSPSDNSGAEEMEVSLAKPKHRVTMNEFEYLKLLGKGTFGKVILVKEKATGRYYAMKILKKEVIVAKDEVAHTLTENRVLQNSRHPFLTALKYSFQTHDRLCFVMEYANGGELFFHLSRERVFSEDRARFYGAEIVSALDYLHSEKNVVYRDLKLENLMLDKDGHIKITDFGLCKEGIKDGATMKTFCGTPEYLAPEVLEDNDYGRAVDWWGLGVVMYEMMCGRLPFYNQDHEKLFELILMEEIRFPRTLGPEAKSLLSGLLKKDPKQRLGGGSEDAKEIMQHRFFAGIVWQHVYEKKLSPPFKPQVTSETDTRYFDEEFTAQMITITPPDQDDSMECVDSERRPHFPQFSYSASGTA

PRKCZ (human) = PRKCZ (human) (UniProt Q05513)
PDPK1 (human) = PDPK1 (human) (UniProt O15530)
LTK (human) = LTK (human) (UniProt P29376)
IRAK1 (human) = IRAK1 (human) (UniProt P51617)
JAK2 JH1 JH2 (human) = JAK2 JH1 JH2 (human) (UniProt O60674)
AURKC (human) = AURKC (human) (UniProt Q9UQB9)
CSNK2A1 (human) = CSNK2A1 (human) (UniProt P68400)

CSNK1G2 (human), sequence (P78368 whole entry, looked up): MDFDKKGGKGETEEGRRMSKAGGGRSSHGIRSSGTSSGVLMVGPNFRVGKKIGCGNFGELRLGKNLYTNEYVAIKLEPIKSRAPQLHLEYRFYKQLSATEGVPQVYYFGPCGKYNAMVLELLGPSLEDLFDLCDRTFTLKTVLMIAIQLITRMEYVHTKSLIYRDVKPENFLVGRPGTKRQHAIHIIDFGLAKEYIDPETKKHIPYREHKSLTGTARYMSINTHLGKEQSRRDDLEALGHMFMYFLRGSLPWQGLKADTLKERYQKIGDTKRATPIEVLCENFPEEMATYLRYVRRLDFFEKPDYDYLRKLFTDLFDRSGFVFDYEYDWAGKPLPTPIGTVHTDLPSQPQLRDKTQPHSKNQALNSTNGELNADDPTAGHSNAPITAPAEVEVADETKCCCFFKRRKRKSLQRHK
CHUK (human), sequence (O15111 whole entry, looked up): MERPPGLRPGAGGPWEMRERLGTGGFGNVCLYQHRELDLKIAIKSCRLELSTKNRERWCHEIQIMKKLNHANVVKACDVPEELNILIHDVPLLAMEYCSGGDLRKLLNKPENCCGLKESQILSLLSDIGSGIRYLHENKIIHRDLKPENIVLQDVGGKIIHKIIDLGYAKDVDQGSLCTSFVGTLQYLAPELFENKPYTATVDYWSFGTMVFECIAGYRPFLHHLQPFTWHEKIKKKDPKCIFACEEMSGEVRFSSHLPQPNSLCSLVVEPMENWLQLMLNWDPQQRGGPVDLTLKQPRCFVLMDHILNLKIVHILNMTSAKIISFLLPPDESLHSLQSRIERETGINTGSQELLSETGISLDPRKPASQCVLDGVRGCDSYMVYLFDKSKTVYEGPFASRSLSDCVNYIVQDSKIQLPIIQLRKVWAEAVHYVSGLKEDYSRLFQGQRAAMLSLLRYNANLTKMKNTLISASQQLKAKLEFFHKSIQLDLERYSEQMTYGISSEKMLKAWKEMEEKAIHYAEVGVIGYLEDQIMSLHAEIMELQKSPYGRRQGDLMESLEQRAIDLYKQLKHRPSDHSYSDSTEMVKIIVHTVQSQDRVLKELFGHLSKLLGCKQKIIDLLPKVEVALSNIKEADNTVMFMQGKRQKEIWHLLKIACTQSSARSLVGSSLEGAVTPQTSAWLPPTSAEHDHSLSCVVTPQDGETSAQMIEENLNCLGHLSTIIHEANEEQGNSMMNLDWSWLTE

CC(=O)c1ccc(N2CCOCC2)cc1O
residual activity (CHUK (human)): 96.2% | residual activity (CDC42BPA (human)): 100% | residual activity [1]: 104% | residual activity (CSNK1G2 (human)): 102% | residual activity (CDK6 CCND3 (human)): 97.4% | residual activity (PRKCI (human)): 96.3% | residual activity (STK3 (human)): 98.9% | residual activity (RET (human)): 103% | residual activity (FGR (human)): 95.6% | residual activity (EGFR (human)): 97.4% | residual activity (HIPK1 (human)): 93.9% | residual activity (DYRK1B (human)): 99.9% | residual activity (PNCK (human)): 103% | residual activity (MST4 (human)): 99.5% | residual activity (PDGFRA (human)): 94.7% | residual activity (PRKX (human)): 105% | residual activity (WNK2 (human)): 101% | residual activity (ABL1 (human)): 98.9% | residual activity (PTK2B (human)): 102% | residual activity (GRK6 (human)): 100% | residual activity (CDK9 CCNK (human)): 106% | residual activity (PKN1 (human)): 108% | residual activity (DYRK2 (human)): 101% | residual activity (EPHA1 (human)): 94% | residual activity (MARK1 (human)): 96.7% | residual activity (ACVRL1 (human)): 103% | residual activity (SRPK3 (human)): 104% | residual activity (SRMS (human)): 94.7% | residual activity (SLK (human)): 105% | residual activity (SYK (human)): 92.6% | residual activity (MAP4K2 (human)): 116% | residual activity (CSK (human)): 99.1% | residual activity (DCLK2 (human)): 101% | residual activity (AKT1 (human)): 103% | residual activity (PRKCZ (human)): 111% | residual activity (PDPK1 (human)): 111% | residual activity (LTK (human)): 102% | residual activity (IRAK1 (human)): 111% | residual activity (JAK2 JH1 JH2 (human)): 93.6% | residual activity (AURKC (human)): 104% | residual activity (CSNK2A1 (human)): 101%

Cc1ccc(NC2=CC(=O)c3sc(C)nc3C2=O)cc1
residual activity (CHUK (human)): 91.9% | residual activity (CDC42BPA (human)): 77.6% | residual activity [1]: 95.1% | residual activity (CSNK1G2 (human)): 99.9% | residual activity (CDK6 CCND3 (human)): 99.6% | residual activity (PRKCI (human)): 96.9% | residual activity (STK3 (human)): 105% | residual activity (RET (human)): 97.6% | residual activity (FGR (human)): 85.3% | residual activity (EGFR (human)): 97.9% | residual activity (HIPK1 (human)): 96.7% | residual activity (DYRK1B (human)): 94.6% | residual activity (PNCK (human)): 95.3% | residual activity (MST4 (human)): 86.6% | residual activity (PDGFRA (human)): 85.9% | residual activity (PRKX (human)): 96.8% | residual activity (WNK2 (human)): 97.7% | residual activity (ABL1 (human)): 90.8% | residual activity (PTK2B (human)): 90.2% | residual activity (GRK6 (human)): 96.8% | residual activity (CDK9 CCNK (human)): 84.4% | residual activity (PKN1 (human)): 98.9% | residual activity (DYRK2 (human)): 109% | residual activity (EPHA1 (human)): 86.1% | residual activity (MARK1 (human)): 89.6% | residual activity (ACVRL1 (human)): 101% | residual activity (SRPK3 (human)): 98.2% | residual activity (SRMS (human)): 82.4% | residual activity (SLK (human)): 80.6% | residual activity (SYK (human)): 97.9% | residual activity (MAP4K2 (human)): 104% | residual activity (CSK (human)): 102% | residual activity (DCLK2 (human)): 95.3% | residual activity (AKT1 (human)): 83.3% | residual activity (PRKCZ (human)): 98.2% | residual activity (PDPK1 (human)): 88.7% | residual activity (LTK (human)): 88.8% | residual activity (IRAK1 (human)): 108% | residual activity (JAK2 JH1 JH2 (human)): 99.1% | residual activity (AURKC (human)): 90.7% | residual activity (CSNK2A1 (human)): 98.2%
